# From patent US11548888B2, “KRas G12C inhibitors” (Mirati Therapeutics, Inc., priority 2019, dated 2023)
# pIC50: −log10 of the molar value.
# Biological target: T1, KRas G12C (Homo sapiens, UniProt P01116, G12C)
# T1 construct: NCI-H358 cells (ATCC CRL-5807) express KRas G12C
# Assay: Inhibition of KRas G12C-dependent cell growth: Phospho-ERK in NCI-H358 cells
# Assay type: cell-based
# Details: NCI-H358 cells expressing KRas G12C; Phospho-ERK (Thr202/Tyr204) normalized to GAPDH; 3 hours compound; 4 parameter fit
# Method: The cellular inhibition of KRAs G12C by exemplary compounds of the present invention was determined by measuring the amount of a downstream marker of KRas activity, phosphorylated ERK (“Phospho-ERK”).
# NCI-H358 cells (ATCC CRL-5807) express KRas G12C and were grown in RPMI medium supplemented with 10% fetal bovine serum, penicillin/streptomycin and 10 mM HEPES. Cells were plated in poly-D-Lysine coated 96-well plates at a concentration of 50,000 cells/well and allowed to attach for 8-12 hours. Diluted compounds were then added at a final concentration of 0.5% DMSO. After 3 hours, the medium was removed, 150 μL of 4% formaldehyde was added and the plates were incubated for 20 minutes. The plates were washed with PBS, and permeabilized using 150 μL of ice cold 100% methanol for 10 minutes. Non-specific antibody binding to the plates was blocked using 100 μL Licor Blocking Buffer (Li-Cor Biotechnology, Lincoln Nebr.) for 1 hour at room temperature. Positive control samples and samples lacking cells were parallel processed with test samples as standards.
# The amount Phospho-ERK was determined using an antibody specific for the phosphorylated form of ERK and compared to the amount of GAPDH. Primary antibodies used for detection were added as follows: Phospho-ERK (Cell Signaling cs9101) diluted 1:500 and GAPDH (Millipore MAB374) diluted 1:5000 in Licor block+0.05% Tween 20. The plates were incubated for 2 hours at room temperature. The plates were washed with PBS+0.05% Tween 20.
# Secondary antibodies used to visualize primary antibodies were added as follows: Anti-rabbit-680 diluted 1:1000 and Anti-mouse-800 diluted 1:1000 in Licor Block+0.05% Tween 20 and incubated for 1 hour at room temperature. The plates were washed with PBS+0.05% Tween 20. A 100 μL aliquot of PBS was added to each well and the plates were read on a LICOR AERIUS plate reader.
# The pERK(Thr202/Tyr204) signal was normalized with the GAPDH signal and percent of DMSO control values were calculated. IC50 values were generated using a 4 parameter fit of the dose response curve.
# T1 sequence (P01116 1-188 isoform P01116-2 G12C): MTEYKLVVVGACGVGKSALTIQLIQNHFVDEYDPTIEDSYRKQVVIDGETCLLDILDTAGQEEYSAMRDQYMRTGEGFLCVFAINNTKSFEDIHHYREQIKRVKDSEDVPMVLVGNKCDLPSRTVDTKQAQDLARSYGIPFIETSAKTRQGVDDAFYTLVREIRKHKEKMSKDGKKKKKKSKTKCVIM
row,Structure (SMILES),pIC50
1,"C=C(F)C(=O)N1CCN(c2nc(OCCCN3C[C@@H]4C[C@H]3CO4)nc3c(F)c(-c4cncc5cccc(C)c45)ncc23)C[C@@H]1CC#N [Example 38, 2-[(2S)-4-[8-fluoro-7-(5-methyl-4-isoquinolyl)-2-[3-[(1S,4S)-2-oxa-5-azabicyclo[2.2.1]heptan-5-yl]propoxy]pyrido[4,3-d]pyrimidin-4-yl]-1-(2-fluoroprop-2-enoyl)piperazin-2-yl]acetonitrile]",6.47
2,"Cc1cccc2cncc(-c3ncc4c(N5CCN(C(=O)/C=C/CF)[C@@H](CC#N)C5)nc(OCCCN5C[C@@H]6C[C@H]5CO6)nc4c3F)c12 [Example 39, 2-[(2S)-1-[(E)-4-fluorobut-2-enoyl]-4-[8-fluoro-7-(5-methyl-4-isoquinolyl)-2-[3-[(1S,4S)-2-oxa-5-azabicyclo[2.2.1]heptan-5-yl]propoxy]pyrido[4,3-d]pyrimidin-4-yl]piperazin-2-yl]acetonitrile]",6.26
3,"C=CC(=O)N1CCN(c2ncnc3cc(-c4cccc5cccc(C)c45)ncc23)C[C@@H]1CC#N [Example 40, (S)-2-(1-acryloyl-4-(7-(8-methylnaphthalen-1-yl)pyrido[4,3-d]pyrimidin-4-yl)piperazin-2-yl)acetonitrile]",6.30
4,"C=CC(=O)N1CCN(c2ncnc3c(F)c(-c4cccc5cccc(C)c45)ncc23)C[C@@H]1CC#N [Example 41, 2-[(2S)-4-[8-fluoro-7-(8-methyl-1-naphthyl)pyrido[4,3-d]pyrimidin-4-yl]-1-prop-2-enoyl-piperazin-2-yl]acetonitrile]",6.67
5,"C=C(F)C(=O)N1CCN(c2nc(OC[C@@H]3C[C@@H](F)CN3C)nc3c(F)c(-c4cccc5cccc(Cl)c45)ncc23)C[C@@H]1CC#N [Example 42, 2-[(2S)-4-[7-(8-chloro-1-naphthyl)-8-fluoro-2-[[(2S,4R)-4-fluoro-1-methyl-pyrrolidin-2-yl]methoxy]pyrido[4,3-d]pyrimidin-4-yl]-1-(2-fluoroprop-2-enoyl)piperazin-2-yl]acetonitrile]",7.74
6,"CN1C[C@H](F)C[C@H]1COc1nc(N2CCN(C(=O)/C=C/CF)[C@@H](CC#N)C2)c2cnc(-c3cccc4cccc(Cl)c34)c(F)c2n1 [Example 43, 2-[(2S)-4-[7-(8-chloro-1-naphthyl)-8-fluoro-2-[[(2S,4R)-4-fluoro-1-methyl-pyrrolidin-2-yl]methoxy]pyrido[4,3-d]pyrimidin-4-yl]-1-[(E)-4-fluorobut-2-enoyl]piperazin-2-yl]acetonitrile]",8.40
7,"COC/C=C/C(=O)N1CCN(c2nc(OC[C@@H]3C[C@@H](F)CN3C)nc3c(F)c(-c4cccc5cccc(Cl)c45)ncc23)C[C@@H]1CC#N [Example 44, 2-[(2S)-4-[7-(8-chloro-1-naphthyl)-8-fluoro-2-[[(2S,4R)-4-fluoro-1-methyl-pyrrolidin-2-yl]methoxy]pyrido[4,3-d]pyrimidin-4-yl]-1-[(E)-4-methoxybut-2-enoyl]piperazin-2-yl]acetonitrile]",7.82
8,"C=C(F)C(=O)N1CCN(c2nc(OC[C@@H]3CC(F)(F)CN3C)nc3c(F)c(-c4cncc5cccc(C)c45)ncc23)C[C@@H]1CC#N [Example 45, 2-((S)-4-(2-(((S)-4,4-difluoro-1-methylpyrrolidin-2-yl)methoxy)-8-fluoro-7-(5-methylisoquinolin-4-yl)pyrido[4,3-d]pyrimidin-4-yl)-1-(2-fluoroacryloyl)piperazin-2-yl)acetonitrile]",6.69
9,"C=C(F)C(=O)N1CCN(c2nc(OC[C@@H]3CC(F)(F)CN3C)nc3c(F)c(-c4cncc5cccc(Cl)c45)ncc23)C[C@@H]1CC#N [Example 46, 2-((S)-4-(7-(5-chloroisoquinolin-4-yl)-2-(((S)-4,4-difluoro-1-methylpyrrolidin-2-yl)methoxy)-8-fluoropyrido[4,3-d]pyrimidin-4-yl)-1-(2-fluoroacryloyl)piperazin-2-yl)acetonitrile]",7.03
10,"CN1CC(F)(F)C[C@H]1COc1nc(N2CCN(C(=O)/C=C/CF)[C@@H](CC#N)C2)c2cnc(-c3cncc4cccc(Cl)c34)c(F)c2n1 [Example 47, 2-((S)-4-(7-(5-chloroisoquinolin-4-yl)-2-(((S)-4,4-difluoro-1-methylpyrrolidin-2-yl)methoxy)-8-fluoropyrido[4,3-d]pyrimidin-4-yl)-1-((E)-4-fluorobut-2-enoyl)piperazin-2-yl)acetonitrile]",7.52
11,"N#CC[C@H]1CN(c2nc(OCCCN3C[C@@H]4C[C@H]3CO4)nc3c(F)c(-c4cncc5cccc(Cl)c45)ncc23)CCN1C(=O)/C=C/CF [Example 48, 2-[(2S)-4-[7-(5-chloro-4-isoquinolyl)-8-fluoro-2-[3-[(1S,4S)-2-oxa-5-azabicyclo[2.2.1]heptan-5-yl]propoxy]pyrido[4,3-d]pyrimidin-4-yl]-1-[(E)-4-fluorobut-2-enoyl]piperazin-2-yl]acetonitrile]",6.57
12,"COC/C=C/C(=O)N1CCN(c2nc(OC[C@@H]3C[C@@H](F)CN3C)nc3c(F)c(-c4cccc5cccc(C)c45)ncc23)C[C@@H]1CC#N [Example 49, 2-[(2S)-4-[8-fluoro-2-[[(2S,4R)-4-fluoro-1-methyl-pyrrolidin-2-yl]methoxy]-7-(8-methyl-1-naphthyl)pyrido[4,3-d]pyrimidin-4-yl]-1-[(E)-4-methoxybut-2-enoyl]piperazin-2-yl]acetonitrile]",7.21
13,"C=C(F)C(=O)N1CCN(c2nc(OC[C@@H]3C[C@@H](F)CN3C)nc3c(F)c(-c4cncc5cccc(C)c45)ncc23)C[C@@H]1CC#N [Example 50, 2-[(2S)-4-[8-fluoro-2-[[(2S,4R)-4-fluoro-1-methyl-pyrrolidin-2-yl]methoxy]-7-(5-methyl-4-isoquinolyl)pyrido[4,3-d]pyrimidin-4-yl]-1-(2-fluoroprop-2-enoyl)piperazin-2-yl]acetonitrile]",7.28
14,"Cc1cccc2cncc(-c3ncc4c(N5CCN(C(=O)/C=C/CF)[C@@H](CC#N)C5)nc(OC[C@@H]5C[C@@H](F)CN5C)nc4c3F)c12 [Example 51, 2-[(2S)-1-[(E)-4-fluorobut-2-enoyl]-4-[8-fluoro-2-[[(2S,4R)-4-fluoro-1-methyl-pyrrolidin-2-yl]methoxy]-7-(5-methyl-4-isoquinolyl)pyrido[4,3-d]pyrimidin-4-yl]piperazin-2-yl]acetonitrile]",7.72
15,"C=C(F)C(=O)N1CCN(c2nc(OC[C@@H]3C[C@@H](F)CN3C)nc3c(F)c(-c4cncc5cccc(Cl)c45)ncc23)C[C@@H]1CC#N [Example 52, 2-[(2S)-4-[7-(5-chloro-4-isoquinolyl)-8-fluoro-2-[[(2S,4R)-4-fluoro-1-methyl-pyrrolidin-2-yl]methoxy]pyrido[4,3-d]pyrimidin-4-yl]-1-(2-fluoroprop-2-enoyl)piperazin-2-yl]acetonitrile]",7.64
16,"CN1C[C@H](F)C[C@H]1COc1nc(N2CCN(C(=O)/C=C/CF)[C@@H](CC#N)C2)c2cnc(-c3cncc4cccc(Cl)c34)c(F)c2n1 [Example 53, 2-[(2S)-4-[7-(5-chloro-4-isoquinolyl)-8-fluoro-2-[[(2S,4R)-4-fluoro-1-methyl-pyrrolidin-2-yl]methoxy]pyrido[4,3-d]pyrimidin-4-yl]-1-[(E)-4-fluorobut-2-enoyl]piperazin-2-yl]acetonitrile]",7.77
17,"C=C(F)C(=O)N1CCN(c2nc(OC[C@@H]3CCCN3C)nc3c(F)c(-c4cncc5cccc(Cl)c45)ncc23)C[C@@H]1CC#N [Example 54, 2-((S)-4-(7-(5-chloroisoquinolin-4-yl)-8-fluoro-2-(((S)-1-methylpyrrolidin-2-yl)methoxy)pyrido[4,3-d]pyrimidin-4-yl)-1-(2-fluoroacryloyl)piperazin-2-yl)acetonitrile]",7.85
18,"Cc1cccc2cncc(-c3ncc4c(N5CCN(C(=O)/C=C/CF)[C@@H](CC#N)C5)nc(OC[C@@H]5CC(F)(F)CN5C)nc4c3F)c12 [Example 55, 2-((S)-4-(2-(((S)-4,4-difluoro-1-methylpyrrolidin-2-yl)methoxy)-8-fluoro-7-(5-methylisoquinolin-4-yl)pyrido[4,3-d]pyrimidin-4-yl)-1-((E)-4-fluorobut-2-enoyl)piperazin-2-yl)acetonitrile]",7.05
19,"C=C(F)C(=O)N1CCN(c2nc(OC[C@@H]3C[C@@H](OC)CN3C)nc3c(F)c(-c4cncc5cccc(Cl)c45)ncc23)C[C@@H]1CC#N [Example 56, 2-[(2S)-4-[7-(5-chloro-4-isoquinolyl)-8-fluoro-2-[[(2S,4R)-4-methoxy-1-methyl-pyrrolidin-2-yl]methoxy]pyrido[4,3-d]pyrimidin-4-yl]-1-(2-fluoroprop-2-enoyl)piperazin-2-yl]acetonitrile]",7.55
